The structures appear in SMILES notation.

IC50 data for 92 compounds are collected here from the supplement of paper PMC3493320.

The test system of this assay is NCI-H295R. The assay can be described thus: IC50 (antiproliferative, ATP content). To be noted: 48 h. In outline:
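Adrenocortical carcinoma cells in 1536-well plates (1500 per well, serum-free DMEM plus ITS, overnight culture) were exposed for 48 h at 37 °C, 5% CO2 to pin-transferred compounds at 8 final concentrations ranging 0.6 nM to 46 µM. ATP content was then read as CellTiter-Glo luminescence and normalised to vehicle and positive-control wells. The IC50 came from logistic curve fits, and any compound lacking a concentration response was recorded as above the top dose.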
Broadly, the IC50 is the midpoint of a concentration-inhibition curve. High values mean a need for much substance, low ones inhibition by little substance. With `N#Cc1c(N(CC(=O)[O-])CC(=O)[O-])sc(C(=O)[O-])c1CC(=O)[O-].O.O.O.O.O.O.O.[Sr+2].[Sr+2]`, the IC50 is more than 46 µM.

With `CCCN[C@H]1CCc2nc(N)sc2C1`, the IC50 was more than 46 µM. `C[N+](C)(C)CCCCCC[N+](C)(C)C`: the IC50 is more than 46 µM. On to `CCN(CC)C(=O)c1cccc(C)c1`, for which the IC50 was more than 46 µM.

In the case of `CC1(C)Oc2ccc(C#N)cc2[C@@H](N2CCCC2=O)[C@@H]1O`, the IC50 is more than 46 µM.

The compound `c1ccc(C2CC2)c(OCC2=NCCN2)c1` came in with an IC50 of more than 46 µM. Next, `CCCCCCCCOc1ccc(C(=O)c2ccccc2)c(O)c1`: more than 46 µM; `CC1=Nc2ccc(Cl)cc2S(=O)(=O)N1`: more than 46 µM. With `COCCc1ccc(OCC(O)CNC(C)C)cc1.COCCc1ccc(OCC(O)CNC(C)C)cc1.O=C(O)[C@H](O)[C@@H](O)C(=O)O` (configuration not stated) the figure was more than 46 µM. As for `O=P([O-])(O)C(O)(Cc1cccnc1)P(=O)([O-])O.[Na+].[Na+]`, the half-maximal inhibitory concentration (IC50) is more than 46 µM.

The compound `O=C(O)C(Cl)(Cl)Cl` registered a half-maximal inhibitory concentration (IC50) of more than 46 µM. Next, `O=C(O)c1ccccc1C(=O)Nc1ccc(S(=O)(=O)Nc2nccs2)cc1`: more than 46 µM. Next, `CCCCCC[C@@H](O)C/C=C\CCCCCCCC(=O)[O-].[K+]`: more than 46 µM; `CCCCc1ncc(/C=C(\Cc2cccs2)C(=O)O)n1Cc1ccc(C(=O)O)cc1.CS(=O)(=O)O`: more than 46 µM. With `COc1ccc(C(=O)c2ccccc2)c(O)c1`, the IC50 is more than 46 µM. Next, `Cc1cn([C@H]2C[C@H](F)[C@@H](CO)O2)c(=O)[nH]c1=O`: more than 46 µM; `CC=CC(=O)N(CC)c1ccccc1C`: more than 46 µM. With `Clc1cccc(SC2CCNCC2)n1` the figure was more than 46 µM; with `CC(=O)O.CNC(=N)NCCC[C@H](N)C(=O)O`, more than 46 µM; with `O=c1[nH]c2cc(C(F)(F)F)c(N3CCOCC3)cc2n(CP(=O)(O)O)c1=O`, more than 46 µM. With `C=C1CC[C@@]2(O)[C@H]3Cc4ccc(O)c5c4[C@@]2(CCN3CC2CC2)[C@H]1O5` the figure was more than 46 µM. `O=C(O)c1ccc[n+]([O-])c1` registered an IC50 of more than 46 µM. Compound `Cc1cc2c(s1)Nc1ccccc1N=C2N1CCN(C)CC1` registered an IC50 of more than 46 µM.

Compound `COc1ccc(C(=O)c2c(C)n(CCN3CCOCC3)c3ccccc23)cc1` gave an IC50 of more than 46 µM. With `CC(=O)N[C@H]1C(O)O[C@H](CO)[C@@H](O)[C@@H]1O` (some centres not stated) the figure was more than 46 µM.

Turning to `Cc1c(F)c(N2CCNC(C)C2)cc2c1c(=O)c(C(=O)O)cn2C1CC1.Cl` (configuration not stated), the IC50 is more than 46 µM. Regarding `O=C(NCCN1CCOCC1)c1ccc(Cl)cc1`, the IC50 was more than 46 µM. With `CCC(Cc1c(I)cc(I)c(O)c1I)C(=O)O` (configuration not stated) the figure was more than 46 µM; with `O[C@@H]([C@@H]1O\C(=C/[C@H](NC(N)=N)[C@H]1NC(C)=O)C(O)=O)[C@H](O)CO`, more than 46 µM.

As to `S=C(S)N1CCNCC1`, the 50% inhibitory concentration (IC50) is more than 46 µM.

With `CC(C)(O/N=C(\C(=O)N[C@@H]1C(=O)N2C(C(=O)[O-])=C(C[n+]3ccccc3)CS[C@H]12)c1csc(N)n1)C(=O)O.O.O.O.O.O`, the IC50 was more than 46 µM.

With `COc1ccc(-c2cc(C(F)F)nn2-c2ccc(S(N)(=O)=O)cc2)cc1F`, the IC50 was more than 46 µM.

Consider `O=[C@](CO)[C@@H]2[C@](CC1)(C)[C@](CC2)([H])[C@@](CC4)([H])[C@@]1([H])[C@](CC3)(C)C4=CC3=O`, for which the IC50 was more than 46 µM. Next, `CCCC(=O)Nc1ccc(OCC(O)CNC(C)C)c(C(C)=O)c1.Cl` (configuration not stated): more than 46 µM; `CC[C@@H](CO)NC(=O)[C@@H]1C=C2c3cccc4c3c(cn4C)C[C@H]2N(C)C1`: more than 46 µM.

`NC(=O)CCCCC1CCSS1` (configuration not stated) returned a 50% inhibitory concentration (IC50) of more than 46 µM.

For `CCCCCCCCCCCCSCCOCCO`, the IC50 is more than 46 µM.

The compound `C[N+]1([O-])[C@@H]2CC[C@H]1C[C@@H](OC(=O)C(CO)c1ccccc1)C2.Cl` (some centres not stated) registered an IC50 of more than 46 µM. Next, `OC(C)=O.NC(CNC([C@H](CCCNC(N)=N)N[C@]([C@@H]1CCCN1[C@]([C@H](CSSCCC(N[C@@H](CC4=CC=C(O)C=C4)C3=O)=O)NC([C@H](CC(N)=O)NC([C@@H](NC([C@@H](N3)CC2=CC=CC=C2)=O)CCC(N)=O)=O)=O)=O)=O)=O)=O`: more than 46 µM. `O=C(O)CCC(=O)O` registered an IC50 of more than 46 µM. Next, `Cl.O=C1NCC2(CCN(CCc3ccccc3)CC2)O1`: more than 46 µM; `CCS(=O)(=O)CCn1c([N+](=O)[O-])cnc1C`: more than 46 µM. With `Cc1cccc(C)c1NC1=NCCCS1`, the IC50 is more than 46 µM. Consider `OCC(O)CO`, for which the IC50 is more than 46 µM. In the case of `NC(=O)NC1NC(=O)NC1=O` (configuration not stated), the IC50 is more than 46 µM. `NC1=NC(=O)N2CC12` (configuration not stated) came in with an IC50 of more than 46 µM. Next, `CC(C)(Sc1cc(C(C)(C)C)c(O)c(C(C)(C)C)c1)Sc1cc(C(C)(C)C)c(O)c(C(C)(C)C)c1`: more than 46 µM; `CN/C(=N\c1ccc(C2=NNC(=O)CC2C)cc1)NC#N` (configuration not stated): more than 46 µM; `CC[N+](C)(CC)CCOC(=O)C(O)(c1ccccc1)c1ccccc1.[Br-]`: more than 46 µM. Turning to `CCOC(=O)C1=C(COCCN)NC(C)=C(C(=O)OC)C1c1ccccc1Cl.O=S(=O)(O)c1ccccc1` (configuration not stated), the half-inhibitory concentration (IC50) is more than 46 µM. Next, `Cc1cccc(C)c1NC(=O)CC12CCCN1CCC2`: more than 46 µM; `OCCOCCOCCO`: more than 46 µM; `Cl.O=C(O)/C=C/c1ccc(Cn2ccnc2)cc1`: more than 46 µM. Next, `C[C@]12CCC(=O)C(O)=C1CC[C@@H]1[C@@H]2CC[C@]2(C)C(=O)CC[C@@H]12`: more than 46 µM; `CC=CC=CC(=O)O`: more than 46 µM. Take `CCNC(=O)/C=C/c1cccc(Br)c1`: the IC50 was more than 46 µM.

For `Cc1ncc[nH]1`, the IC50 was more than 46 µM. Compound `Cc1c(C)n(Cc2ccccc2)c2ccc(C(=O)OCCN(C)C)cc12` gave an IC50 of more than 46 µM. Next, `[N-]=[N+]=CC(=O)OC[C@H](N)C(=O)O`: more than 46 µM; `CN1CCN(CCCN2c3ccccc3Sc3ccc(S(=O)(=O)N(C)C)cc32)CC1.CS(=O)(=O)O.CS(=O)(=O)O`: more than 46 µM. `Nc1ccc(S(=O)(=O)c2ccc(N)cc2)cc1` returned an IC50 of more than 46 µM.

With `NS(=O)(=O)c1cc(Cl)c(Cl)c(S(N)(=O)=O)c1`, the IC50 was more than 46 µM. Compound `CCOC(=O)[C@@](C)(N)Cc1ccc(O)c(O)c1.Cl` displayed a concentration for half-maximal inhibition (IC50) of more than 46 µM.

With `COc1cnc(NS(=O)(=O)c2ccc(N)cc2)nc1`, the IC50 was more than 46 µM. Next, `Cl.N=C(N)NC(=O)Cc1c(Cl)cccc1Cl`: more than 46 µM; `Cl.Cl.c1ccc(CNCCNCc2ccccc2)cc1`: more than 46 µM; `CCN(CC)CCCC(C)Nc1ccnc2cc(Cl)ccc12.O=P(O)(O)O.O=P(O)(O)O` (configuration not stated): more than 46 µM. With `CO[C@H]1C[C@H](O[C@H]2[C@H](C)[C@@H](O[C@@H]3O[C@H](C)C[C@H](N(C)C)[C@H]3O)[C@@H](C)C[C@]3(CO3)C(=O)[C@H](C)[C@@H](O)[C@@H](C)[C@@H](C)OC(=O)[C@@H]2C)O[C@@H](C)[C@@H]1O.O=P(O)(O)O` the figure was more than 46 µM. Next, `CCOC(=O)c1cccc(N)c1.CS(=O)(=O)O`: more than 46 µM; `Cc1ncc(CO)c(CN)c1O.Cl.Cl`: more than 46 µM; `O=C(O)CCC(=O)O.c1ccc(C2(c3ccccc3)CC2C2=NCCN2)cc1` (configuration not stated): more than 46 µM. For `C=CCN1CCCC1CNC(=O)c1cc(S(N)(=O)=O)cc(OC)c1OC` (configuration not stated), the IC50 is more than 46 µM. On to `CC(=O)Nc1c(I)cc(I)c(C(=O)O)c1I`, for which the IC50 is more than 46 µM. With `CN1CC(=O)N=C1NC(=O)Nc1cccc(Cl)c1` the figure was more than 46 µM; with `OC[C@H](CC)NC(=O)[C@@H]2/C=C1/c3cccc4N\C=C(\C[C@H]1N(C)C2)c34`, more than 46 µM; with `C[C@]12CC[C@@H]3c4ccc(O)cc4CC[C@H]3[C@@H]1CC[C@@H]2OP(=O)(O)O`, more than 46 µM. In turn, `CCN(CC)CCOC[C@H]1O[C@@H](O)[C@H](OCCN(CC)CC)[C@@H](O)[C@@H]1O` showed an IC50 of more than 46 µM. Turning to `CCOc1ccc2ccccc2c1C(=O)N[C@@H]1C(=O)N2[C@@H]1SC(C)(C)[C@@H]2C(=O)[O-].O.[Na+]`, the IC50 was more than 46 µM. `[Na+].[Na+].[O-]C(=O)c4ccccc4C=2c3cc(Br)c([O-])c(Br)c3OC=1C=2\C=C(\Br)C(=O)C=1Br`: the IC50 is more than 46 µM. With `OC[C@H]1OC([S][Au])[C@H](O)[C@@H](O)[C@@H]1O` (some centres not stated) the figure was more than 46 µM; with `CNC1(C)C2CCC(C2)C1(C)C` (configuration not stated), more than 46 µM; with `O=C(C)N1[C@](C[C@](O)([H])C1)([H])[C@@](O)=O`, more than 46 µM.

For the compound `CC(=C\c1ccccc1)/C=C1/SC(=S)N(CC(=O)O)C1=O`, the IC50 was more than 46 µM. The compound `CCCCCC(N)=O` gave an IC50 of more than 46 µM. Turning to `CC=CC1=C(C(=O)O)N2C(=O)[C@@H](NC(=O)[C@H](N)c3ccc(O)cc3)[C@H]2SC1.O`, the IC50 was more than 46 µM. With `O=C1c2ccccc2C(=O)C1c1ccc(F)cc1` the figure was more than 46 µM; with `CCOC(=O)[C@H](CCc1ccccc1)N[C@@H](C)C(=O)N1[C@H](C(=O)O)C[C@@H]2CCC[C@@H]21`, more than 46 µM. With `Cn1cc(NC(=O)c2cc(NC(=O)c3cc(NC=O)cn3C)cn2C)cc1C(=O)NCCC(=N)N`, the half-inhibitory concentration (IC50) was more than 46 µM. Consider `CCc1cc(C(N)=S)ccn1`, for which the IC50 was more than 46 µM. As for `COc1cc(C(=O)NCCCCCC(=O)O)cc(OC)c1OC`, the IC50 was more than 46 µM. `CN1CCN(C2=Nc3cc(Cl)ccc3Nc3ccccc32)CC1` registered an IC50 of more than 46 µM.

In the case of `CCCCC(CC)COC(=O)c1ccc(N(C)C)cc1` (configuration not stated), the half-inhibitory concentration (IC50) was more than 46 µM.
